Reference: PMC8097335, “A High‐Affinity Calmodulin‐Binding Site in the CyaA Toxin Translocation Domain is Essential for Invasion of Eukaryotic Cells” (Advanced Science, 2021)

Assays:
[1] = Synchrotron radiation circular dichroism, alpha-helical content (Bestsel); assay type: physicochemical; conditions: 25 °C, far-UV SRCD
Description: Synchrotron Radiation Circular Dichroism
Synchrotron radiation circular dichroism (SRCD) was performed on the DISCO beamline of the synchrotron SOLEIL (Saint -Aubin, France) . Spectra were recorded at 25°C with an integration time of 1.2 s and a bandwidth of 1 nm with a resolution of 1 nm. A far-UV spectrum represents the average of four individual scans. QS cells (Hellma, France) with a pathlength of 20, 50, 100 or 200 μm (depending on final protein concentrations) were used to record spectra in the fa r -UV range (from 190 to 250 nm). CD spectra of peptides and proteins were measured in buffers A and B, 20% of trifluoroethanol (TFE), in the presence of SUVs (POPC :PO PG 8: 2) or Ca M. Secondary structure content was estimated using Bestsel software […]
Table S8: Estimation of the α -helical content of P454-derived peptides. The secondary structure content is estimated using the on-line Bestsel software 17 available at http://bestsel.elte.hu/index.php. […]
peptide in buffer A, in 20% TFE and in the presence of POPC POPG (molar ratio 8:2) at 2 mM lipid concentration. The far -UV CD spectra of several P454-derived peptides are shown […]

[2] = Peptide titrations by SUVs followed by tryptophan fluorescence (solution-to-membrane partition); assay type: physicochemical
Description: Lipid vesicles preparation
Small unilamellar vesicles (SUVs) and large unilamellar vesicles (LUVs) were prepared with POPC and POPG at a molar ratio of 8:2, at a lipid concentration of 10 mM in buffer A, as previously described 1. Briefly, SUVs and LUVs were prepared by reverse phase evaporation and filtered through polycarbonate filters of 1 μm and 0.2 μm of pore size diameter to obtain L UV. SUVs were further sonicated. The hydrodynamic diameters and mean net charge of the vesicles were measured by dynamic light scattering (DLS) and electrophoretic mobility, respectively, using a ZetaSizer NanoZS (Malvern Pananalytical , Orsay, France) 11.
Peptide titrations bySUV s and CaM followed by tryptophan fluorescence
Titrations were carried out with a FP-8200 Jasco spectrofluorimeter, equipped with a Pelt ie r - thermostated ETC-272T at 25°C. A bandwidth of 5 nm was used for both excitation and […]
(Hellma, France) with constant stirring. Fluorescence emission was recorded between 300 and […]
(§1) 400 nm at a scan rate of 100 nm/min, with an excitation wavelength of 280 nm. Fluorescence emission spectra were corrected for SUV or CaM baselines . Fluorescence intensity ratio at 330 nm over 370 nm was use d to measure the partition coefficient (K X) of peptides between the solution andmembrane s 1, 12 and the affinity (K d) of peptides for CaM 13.
(§2) Determination of partition coefficient KX and dissociation constant Kd from […]
(§3) The partition coefficient KX is defined as the ratio of protein in the lipid (PL) and in buffer […]
(§4) (PW) pha se s 12, 14, expressed by: KKXX = [LL ]? , giving[PPWW ] [PPWW ]= [WW], where [W] the […]
concentration of water (55.5 M) and [L] the lipid concentration.
The fraction of peptide partitioned into the membrane, fPL, is equal to:
ffPPLL = [PPLL ][PPTT ]= [PPLL ][PPLL ]+[PPWW ]= 11+([PPWW ])= 11+( [WW]), where PT is the total concentration of peptides [PP TT ]= [PP LL ]+ [PP WW ]. […]
The equations a re fitted to the experimental data using the KaleidaGraph software, providing the KX and K d value s. The partition coefficient is related to the apparent dissociation constant:
KKXX × KKdd = [WW ] and to the free energy of partition ΔG Kx = -RTln(K X), where ΔG is the free energy in kcal/mol, R the gas constant (R = 1.98 x 10-3 kcal/mol/K) and T the temperature i n Kelvin. The free energy of peptide CaM interaction, ∆G Kd, is given by ΔG Kd = RTln(K d).
Sedimentation velocity-Analytical ultracentrifugation (SV -AUC) […]
ratio 1:1 (at 70 µM each). Samples were incubated 2h at 20°C in the ultracentrifuge and, then span at 42,000 rpm in an An-50 Ti rotor. […]

[3] = Membrane permeabilization of ANTS/DPX-loaded LUVs
Description: To monitor membrane permeabilization induced by peptides, ANTS (fluorophore probe) and
DPX (quencher) were encapsulated into large unilamellar vesicles (LUVs). The LUVs were
prepared at a concentration of 10 mM lipid at a POPC:PO PG molar ratio of 8:2 containing 20
mM ANTS and 60 mM DPX. The multilamellar vesicle suspension was extrudedthrough 0.4-
and 0.2 μm polycarbonate filters to produce LUVs. The unencapsulated ANT S a nd DPX we re
removed by gel filtration with a 5 mL Sephadex G -25 column (GE Healthcare Life Sciences ).
For permeabilization assays, LUVs were incubated in buffer A at 0.45 mM lipid
concentration at 25°C in a 101-QS cuvette (Hellma, France) and under constant stirring.
excitation wavelength was set at 390 nm and the emission of ANTS was continuously
measured at 515 nm. The maximum intensity of permeabilization, corresponding to the
maximum recovery of ANTS fluorescence, was measured after addition of 0.1% of Triton
X100. The concentration of membrane-bound peptide s required to induce the recovery of half
intensity of the ANTS fluorescence (C P1/2) was extracted from the permeabilization intensity
a s a function of peptide concentration 1.
LUVs were incubated in buffer B at a lipid concentration of 0.45 mM.
After a few seconds of permeabilization,
holo-Ca M wa s added t o t he solution at a peptide:Ca M molar ratio of 1:3. EDT A wa s
subsequently added in excess to chelate calcium and convert holo -CaM to apo -C a M .

[4] = Sedimentation velocity analytical ultracentrifugation; assay type: physicochemical; conditions: 57 µM peptide alone, 20 °C, buffer B
Text: as §1, §2, §3, §4
concentration of water (55.5 M) and [L] the lipid concentration. […]
The dissociation constant, Kd, is obtained from titration experiments of the P454-derived peptides by CaM and is expressed as follows: KK dd = [PP ]∗[CCCCCC ][PP:CCCCCC] , given KKdd[CCCCCC]= [PP ][PP :CCCCCC]and the fraction of complex, fP:CaM, i s: ffPP:CCCCCC = [PP :CCCCCC ][PP:CCCCCC]+[PP]= 11+ [PP ]= 11+ KKdd. […]
ratio 1:1 (at 70 µM each). […] Detection of protein concentration as a function of radial position and time was monitored with the ProteomeLab software (Beckman Coulter, […]
Brea, CA, USA) by both absorbance at 280 nm and interferometry. […] SV scans were analyzed using the continuous size distribution model c(s) of the software Sedfit 15. […]

For `CC[C@H](C)[C@H](NC(=O)[C@H](C)NC(=O)[C@H](Cc1c[nH]cn1)NC(=O)[C@@H](NC(=O)[C@H](CC(C)C)NC(=O)[C@H](CCCNC(=N)N)NC(=O)[C@H](CCC(N)=O)NC(=O)[C@H](C)NC(=O)[C@H](C)NC(=O)[C@H](C)NC(=O)[C@@H](NC(=O)[C@H](C)NC(=O)[C@H](CCC(N)=O)NC(=O)[C@H](C)NC(=O)CNC(=O)[C@H](CCC(N)=O)NC(=O)[C@H](CC(C)C)NC(=O)[C@H](C)NC(=O)[C@H](CCCNC(=N)N)NC(=O)[C@H](CCC(N)=O)NC(=O)CNC(=O)[C@H](Cc1c[nH]c2ccccc12)NC(=O)[C@H](Cc1c[nH]cn1)NC(=O)[C@H](C)NC(=O)[C@H](CO)NC(=O)[C@H](C)NC(C)=O)C(C)C)C(C)C)C(=O)N[C@@H](C)C(=O)N[C@@H](CC(C)C)C(=O)N[C@@H](CCSC)C(=O)N[C@H](C(=O)N[C@@H](CCC(N)=O)C(N)=O)[C@@H](C)O` [P454], the “alpha-helical content, TFE 20%” value ([1]; 20% TFE) was 60 ± 2%, the “alpha-helical content, POPC:POPG 8:2” value ([1]; SUVs POPC:POPG 8:2 at 2 mM lipid) was 50 ± 1% and the “alpha-helical content, Solution” value ([1]; buffer A) was 17 ± 2%. For the same compound, the “Partition coefficient KX” value ([2]; POPC:POPG 8:2 SUVs, buffer A pH 7.4, 25 °C, tryptophan fluorescence ratio 330/370 nm, S.D. within ± 10%) was 790 ×10^3, the “Partition coefficient Kx” value ([2]; POPC:POPG 8:2 membranes) was 790 000 and the Kd ([2]; converted from KX: [W]/KX = Kd, [W] = 55.5 M, read-out: Kd for POPC:POPG 8:2) was 70 µM. The “∆GKx for POPC POPG 8:2” value ([2]; ∆GKx = -RT Ln Kx, S.D. within ± 10%) was -8 kcal/mol, the “CP1/2, peptide concentration required to induce recovery of 50% of ANTS fluorescence intensity upon LUVs permeabilization” value ([3]; ANTS:DPX LUVs POPC:POPG 8:2, 0.45 mM lipid, buffer A pH 7.4, 25 °C, ex 390/em 515 nm, S.D. ± 5%) was 0.07 µM and the “Effect of holo-CaM addition on peptide-induced vesicle permeabilization” value ([3]; LUVs 0.45 mM lipid, buffer B (2 mM CaCl2), peptide:CaM molar ratio 1:3) was “immediately stopped”. For the same compound, the Sedimentation coefficient [4] was 0.65 S.
